Earlier results on 3 substances are cited in publication PMC3480965 (Molecular pharmaceutics, 2012).

For data set [1], the system named is melanoma. The settings on record: in vivo, 2 h.
Data set [2] addresses melanocortin-1 (MC1) receptor (Mus musculus, UniProt Q01727). The settings on record: read-out: MC1 receptor binding affinity (IC50); B16/F1 melanoma cells.

Sequence of melanocortin-1 (MC1) receptor (Q01727 whole entry): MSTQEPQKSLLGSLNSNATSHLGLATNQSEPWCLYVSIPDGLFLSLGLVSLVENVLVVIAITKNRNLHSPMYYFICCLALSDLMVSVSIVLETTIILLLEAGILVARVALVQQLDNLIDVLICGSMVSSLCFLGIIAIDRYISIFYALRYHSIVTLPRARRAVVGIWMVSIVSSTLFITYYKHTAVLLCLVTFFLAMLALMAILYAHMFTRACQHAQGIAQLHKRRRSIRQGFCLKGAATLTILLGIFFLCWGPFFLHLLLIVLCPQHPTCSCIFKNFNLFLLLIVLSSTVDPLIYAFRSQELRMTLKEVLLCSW

As to “Ac-Nle-Asp-His-D-Phe-Arg-Trp-Gly-Lys(^64Cu-DOTA)-NH2 [^64Cu-DOTA-NAPamide]”, in data set [1], the Liver uptake is 11.0 % ID/g and the Melanoma uptake is on record as 4.63 ± 0.45 % ID/g.

“^64Cu-DOTA-Re-[Cys[3],[4],[10], D-Phe^7, Arg^11]a-MSH3–13 [^64Cu-DOTA-ReCCMSH(Arg^11)]”: in data set [1], the Liver uptake is reported as 7.3 % ID/g and the Melanoma uptake is on record as 8.80 ± 1.70 % ID/g.

What is called IC50 is the concentration that gives 50% inhibition. Turning to “1,4,7,10-tetraazacyclononane-1,4,7,10-tetraacetic acid-GGNle-CycMSHhex (GGXDHFRWK; X3 = norleucine (Nle); D-Phe6; lactam bridge between Asp4 and Lys9 side chains (cyclic); C-terminal amide; 64Cu-labelled for biod) [DOTA-GGNle-CycMSHhex]”, the 50% inhibitory concentration (IC50) in data set [2] was 2.1 nM.
